Experimental data reported in ChEMBL document CHEMBL5465560, “Selectivity Literature for EUbOPEN Chemogenomic Library” (2024).

Experiments:
[1] = target: Cyclin-dependent kinase 8 (Homo sapiens, UniProt P49336); experiment: Selectivity interaction (KinomeScan (DiscoverX)) EUB0001079a CDK8; details: at 1 µM
[2] = target: Dual specificity tyrosine-phosphorylation-regulated kinase 1B (Homo sapiens, UniProt Q9Y463); experiment: Selectivity interaction (Kinase panel (Z-LYTE Assay)) EUB0001632a DYRK1B; details: at 10 µM
Dual specificity tyrosine-phosphorylation-regulated kinase 1B, sequence (Q9Y463 whole entry, looked up): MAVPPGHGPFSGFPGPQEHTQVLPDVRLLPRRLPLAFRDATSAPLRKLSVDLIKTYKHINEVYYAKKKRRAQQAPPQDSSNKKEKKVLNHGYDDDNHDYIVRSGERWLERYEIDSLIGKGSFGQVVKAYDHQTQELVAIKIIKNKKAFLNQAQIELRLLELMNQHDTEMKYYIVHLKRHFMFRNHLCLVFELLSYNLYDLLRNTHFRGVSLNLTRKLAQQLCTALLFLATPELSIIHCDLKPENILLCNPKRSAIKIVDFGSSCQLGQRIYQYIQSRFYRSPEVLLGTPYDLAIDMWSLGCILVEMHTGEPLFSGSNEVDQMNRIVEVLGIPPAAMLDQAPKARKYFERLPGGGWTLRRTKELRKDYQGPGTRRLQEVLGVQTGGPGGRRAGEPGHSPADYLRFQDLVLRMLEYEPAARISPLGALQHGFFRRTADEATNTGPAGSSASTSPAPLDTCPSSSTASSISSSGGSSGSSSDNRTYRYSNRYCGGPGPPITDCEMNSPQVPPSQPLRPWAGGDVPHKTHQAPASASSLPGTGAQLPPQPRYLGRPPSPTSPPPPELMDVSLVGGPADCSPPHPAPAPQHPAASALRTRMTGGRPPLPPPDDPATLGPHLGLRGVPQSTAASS

[3] = target: Dual specificity mitogen-activated protein kinase kinase 2 (Homo sapiens) (UniProt P36507); experiment: Selectivity interaction (Rxn Biology Kinase assay) EUB0001632a MAP2K2; details: at 10 µM
Dual specificity mitogen-activated protein kinase kinase 2 (Homo sapiens), sequence (P36507 whole entry): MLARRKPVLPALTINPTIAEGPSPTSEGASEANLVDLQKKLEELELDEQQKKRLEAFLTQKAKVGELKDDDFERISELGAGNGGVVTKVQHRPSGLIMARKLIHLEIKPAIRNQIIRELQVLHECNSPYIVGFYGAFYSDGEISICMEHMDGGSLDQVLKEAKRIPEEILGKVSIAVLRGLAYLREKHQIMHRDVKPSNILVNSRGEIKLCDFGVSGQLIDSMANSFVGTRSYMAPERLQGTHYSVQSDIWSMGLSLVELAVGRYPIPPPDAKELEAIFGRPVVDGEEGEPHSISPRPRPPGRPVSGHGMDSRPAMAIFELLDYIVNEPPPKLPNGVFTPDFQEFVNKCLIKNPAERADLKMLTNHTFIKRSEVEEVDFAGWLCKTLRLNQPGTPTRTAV

[4] = target: T1, Serine/threonine-protein kinase STK11 (Homo sapiens) (UniProt Q15831); experiment: Selectivity interaction (KinomeScan (DiscoverX)) EUB0000666a STK11; details: at 10 µM
T1 sequence (whole entry): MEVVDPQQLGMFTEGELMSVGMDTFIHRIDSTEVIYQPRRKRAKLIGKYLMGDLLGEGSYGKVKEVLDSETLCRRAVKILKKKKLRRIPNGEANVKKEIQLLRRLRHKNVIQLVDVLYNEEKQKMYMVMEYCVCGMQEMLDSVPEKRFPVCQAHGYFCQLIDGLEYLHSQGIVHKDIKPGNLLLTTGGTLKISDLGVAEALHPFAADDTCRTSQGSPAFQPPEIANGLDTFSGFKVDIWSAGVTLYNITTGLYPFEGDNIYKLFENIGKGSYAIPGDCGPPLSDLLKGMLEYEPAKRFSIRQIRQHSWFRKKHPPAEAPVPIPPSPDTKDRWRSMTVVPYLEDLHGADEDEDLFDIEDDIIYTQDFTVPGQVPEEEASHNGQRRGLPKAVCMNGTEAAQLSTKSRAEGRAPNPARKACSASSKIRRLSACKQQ

[5] = target: G protein-coupled receptor kinase 4 (Homo sapiens) (UniProt P32298); details: at 10 µM
[6] = target: Mitogen-activated protein kinase kinase kinase kinase 5 (Homo sapiens) (UniProt Q9Y4K4); experiment: Selectivity interaction (KinomeScan (DiscoverX)) EUB0001049a MAP4K5; details: at 1 µM
Mitogen-activated protein kinase kinase kinase kinase 5 (Homo sapiens), sequence (Q9Y4K4 whole entry, looked up): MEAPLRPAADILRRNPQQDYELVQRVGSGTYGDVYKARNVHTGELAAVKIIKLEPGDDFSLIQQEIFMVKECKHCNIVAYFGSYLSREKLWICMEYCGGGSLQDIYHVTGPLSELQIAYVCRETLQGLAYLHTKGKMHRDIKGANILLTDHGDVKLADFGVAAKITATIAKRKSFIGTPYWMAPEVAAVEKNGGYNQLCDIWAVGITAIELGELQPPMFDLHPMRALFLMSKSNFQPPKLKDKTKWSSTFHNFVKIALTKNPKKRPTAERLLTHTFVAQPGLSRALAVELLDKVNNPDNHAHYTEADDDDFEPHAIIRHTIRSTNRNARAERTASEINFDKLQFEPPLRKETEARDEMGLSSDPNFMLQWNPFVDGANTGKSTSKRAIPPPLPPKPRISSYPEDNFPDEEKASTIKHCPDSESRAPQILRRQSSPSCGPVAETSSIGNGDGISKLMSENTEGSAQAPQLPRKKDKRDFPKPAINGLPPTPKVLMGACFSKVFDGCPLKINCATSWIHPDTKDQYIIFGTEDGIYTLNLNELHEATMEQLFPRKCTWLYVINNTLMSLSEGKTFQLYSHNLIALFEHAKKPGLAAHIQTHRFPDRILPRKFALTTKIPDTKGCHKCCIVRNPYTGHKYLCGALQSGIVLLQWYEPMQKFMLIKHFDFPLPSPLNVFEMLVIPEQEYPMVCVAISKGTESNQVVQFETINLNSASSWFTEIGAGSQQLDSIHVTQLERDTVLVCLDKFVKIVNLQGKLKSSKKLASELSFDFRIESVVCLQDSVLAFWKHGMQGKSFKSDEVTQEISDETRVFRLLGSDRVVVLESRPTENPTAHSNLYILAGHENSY

[7] = target: Ribosomal protein S6 kinase alpha-4 (Homo sapiens) (UniProt O75676); experiment: Selectivity interaction (KinomeScan (DiscoverX)) EUB0001049a RPS6KA4; details: at 1 µM
Ribosomal protein S6 kinase alpha-4 (Homo sapiens), sequence (O75676 whole entry, looked up): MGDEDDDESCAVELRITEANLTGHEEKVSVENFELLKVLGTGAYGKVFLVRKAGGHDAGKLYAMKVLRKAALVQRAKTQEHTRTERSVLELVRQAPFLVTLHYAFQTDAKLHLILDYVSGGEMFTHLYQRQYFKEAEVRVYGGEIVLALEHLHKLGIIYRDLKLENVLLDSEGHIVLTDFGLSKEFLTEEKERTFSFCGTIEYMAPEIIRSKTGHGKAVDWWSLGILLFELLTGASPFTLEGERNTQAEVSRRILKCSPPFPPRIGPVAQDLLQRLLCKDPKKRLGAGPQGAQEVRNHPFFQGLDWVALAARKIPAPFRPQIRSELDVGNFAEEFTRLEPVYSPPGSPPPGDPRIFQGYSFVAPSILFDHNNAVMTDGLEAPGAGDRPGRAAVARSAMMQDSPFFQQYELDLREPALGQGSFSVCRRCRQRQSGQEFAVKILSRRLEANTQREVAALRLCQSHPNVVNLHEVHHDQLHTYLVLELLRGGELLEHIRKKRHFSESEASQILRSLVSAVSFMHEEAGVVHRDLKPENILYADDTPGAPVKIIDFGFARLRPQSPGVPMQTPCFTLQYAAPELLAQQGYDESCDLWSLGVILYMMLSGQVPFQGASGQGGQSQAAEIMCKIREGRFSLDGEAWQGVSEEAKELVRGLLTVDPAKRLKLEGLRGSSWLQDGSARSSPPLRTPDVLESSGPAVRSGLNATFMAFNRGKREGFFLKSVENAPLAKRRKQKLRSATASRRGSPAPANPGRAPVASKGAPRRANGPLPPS

[8] = target: Serine/threonine-protein kinase WNK2 (Homo sapiens) (UniProt Q9Y3S1); experiment: Selectivity interaction (Upstate Kinase Profiler service (Millipore)) EUB0000056c WNK2; details: at 1 µM
[9] = target: Tyrosine-protein kinase Fes/Fps (Homo sapiens) (UniProt P07332); experiment: Selectivity interaction (ProQinase) EUB0000171b FES
Tyrosine-protein kinase Fes/Fps (Homo sapiens), sequence (P07332 whole entry): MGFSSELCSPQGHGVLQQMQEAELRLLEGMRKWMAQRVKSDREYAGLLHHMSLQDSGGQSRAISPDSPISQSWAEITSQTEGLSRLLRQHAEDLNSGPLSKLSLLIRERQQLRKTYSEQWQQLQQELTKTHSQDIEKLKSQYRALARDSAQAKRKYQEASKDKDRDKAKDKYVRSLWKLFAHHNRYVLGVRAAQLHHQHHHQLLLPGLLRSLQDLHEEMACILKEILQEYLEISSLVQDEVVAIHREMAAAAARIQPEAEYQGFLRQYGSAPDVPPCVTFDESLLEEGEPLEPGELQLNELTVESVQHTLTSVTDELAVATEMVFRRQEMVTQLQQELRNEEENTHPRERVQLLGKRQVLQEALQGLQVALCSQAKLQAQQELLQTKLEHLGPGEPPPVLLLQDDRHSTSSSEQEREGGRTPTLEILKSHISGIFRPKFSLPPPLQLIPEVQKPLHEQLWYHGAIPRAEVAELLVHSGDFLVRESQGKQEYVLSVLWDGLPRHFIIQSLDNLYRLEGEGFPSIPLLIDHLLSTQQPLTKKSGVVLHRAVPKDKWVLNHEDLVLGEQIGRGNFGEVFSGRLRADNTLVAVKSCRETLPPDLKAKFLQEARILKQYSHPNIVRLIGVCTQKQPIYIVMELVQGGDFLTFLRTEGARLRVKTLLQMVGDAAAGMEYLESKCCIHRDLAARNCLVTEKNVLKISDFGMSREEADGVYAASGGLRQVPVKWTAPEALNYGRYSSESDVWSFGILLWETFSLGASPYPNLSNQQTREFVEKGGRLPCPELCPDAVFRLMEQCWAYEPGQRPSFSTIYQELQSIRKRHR

[10] = target: Dual specificity mitogen-activated protein kinase kinase 1 (Homo sapiens, UniProt Q02750); experiment: Selectivity interaction (ProQinase) EUB0000171b MAP2K1
Dual specificity mitogen-activated protein kinase kinase 1, sequence (Q02750 whole entry): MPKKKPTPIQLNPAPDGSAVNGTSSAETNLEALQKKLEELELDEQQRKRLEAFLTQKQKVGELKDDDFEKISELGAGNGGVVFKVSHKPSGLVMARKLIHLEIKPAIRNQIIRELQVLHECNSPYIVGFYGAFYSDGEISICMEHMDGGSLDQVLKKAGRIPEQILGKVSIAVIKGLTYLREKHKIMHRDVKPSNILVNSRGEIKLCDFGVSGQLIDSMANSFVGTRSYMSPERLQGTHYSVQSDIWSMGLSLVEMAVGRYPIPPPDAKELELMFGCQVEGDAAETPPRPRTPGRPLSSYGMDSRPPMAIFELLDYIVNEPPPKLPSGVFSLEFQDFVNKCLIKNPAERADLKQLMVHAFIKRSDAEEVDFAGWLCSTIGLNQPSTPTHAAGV

[11] = target: Mitogen-activated protein kinase 14 (Homo sapiens, UniProt Q16539); experiment: Selectivity interaction (ProQinase) EUB0000171b MAPK14
Mitogen-activated protein kinase 14, sequence (Q16539 whole entry): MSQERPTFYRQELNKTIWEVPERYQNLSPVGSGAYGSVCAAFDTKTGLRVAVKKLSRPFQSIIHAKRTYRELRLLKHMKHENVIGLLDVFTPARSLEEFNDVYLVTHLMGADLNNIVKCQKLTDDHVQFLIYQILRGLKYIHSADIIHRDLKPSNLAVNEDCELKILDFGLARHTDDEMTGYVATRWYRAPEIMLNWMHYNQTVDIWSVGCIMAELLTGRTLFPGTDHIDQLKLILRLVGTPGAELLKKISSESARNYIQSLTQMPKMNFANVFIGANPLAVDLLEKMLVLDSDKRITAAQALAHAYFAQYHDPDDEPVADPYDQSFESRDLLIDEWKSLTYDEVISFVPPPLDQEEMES

[12] = target: Cyclin-dependent kinase 14 (Homo sapiens) (UniProt O94921); experiment: Selectivity interaction (KinomeScan (DiscoverX)) EUB0001619a CDK14; details: at 1 µM
[13] = target: Serine/threonine-protein kinase 10 (Homo sapiens) (UniProt O94804); experiment: Selectivity interaction (KinomeScan (DiscoverX)) EUB0000607a STK10; details: at 10 µM
[14] = target: Cyclin-dependent kinase 20 (Homo sapiens) (UniProt Q8IZL9); experiment: Selectivity interaction (ActivX KiNativ screen (kinase selectivity in THP-1 cell lysates)) EUB0000639a CDK20; format: subcellular; details: lysate
Cyclin-dependent kinase 20 (Homo sapiens), sequence (Q8IZL9 whole entry, canonical isoform): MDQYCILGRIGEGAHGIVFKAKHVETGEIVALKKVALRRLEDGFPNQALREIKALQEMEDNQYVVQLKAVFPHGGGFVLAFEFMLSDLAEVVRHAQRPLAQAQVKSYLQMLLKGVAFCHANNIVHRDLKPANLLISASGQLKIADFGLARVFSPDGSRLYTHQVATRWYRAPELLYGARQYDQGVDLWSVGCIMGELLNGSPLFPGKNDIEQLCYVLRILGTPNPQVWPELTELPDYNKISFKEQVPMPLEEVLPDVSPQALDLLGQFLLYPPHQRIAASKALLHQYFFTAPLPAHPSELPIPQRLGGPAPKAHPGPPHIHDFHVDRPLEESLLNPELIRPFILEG

[15] = target: T2, Casein kinase I isoform alpha-like (Homo sapiens) (UniProt Q8N752); experiment: Selectivity interaction (KinomeScan (DiscoverX)) EUB0000655a CSNK1A1L; details: at 10 µM
T2 sequence (whole entry): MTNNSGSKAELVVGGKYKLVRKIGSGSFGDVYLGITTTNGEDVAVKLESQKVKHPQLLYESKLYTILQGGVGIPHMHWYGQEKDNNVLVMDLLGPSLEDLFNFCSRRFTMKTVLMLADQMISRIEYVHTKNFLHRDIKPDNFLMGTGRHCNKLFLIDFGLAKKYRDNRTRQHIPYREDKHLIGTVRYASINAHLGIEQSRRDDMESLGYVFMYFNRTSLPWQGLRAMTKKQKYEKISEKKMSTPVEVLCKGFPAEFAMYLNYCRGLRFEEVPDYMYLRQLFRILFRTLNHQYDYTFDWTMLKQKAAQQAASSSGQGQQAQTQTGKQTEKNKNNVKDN

[16] = target: Serine/threonine-protein kinase 33 (Homo sapiens) (UniProt Q9BYT3); experiment: Selectivity interaction (KinomeScan (DiscoverX)) EUB0000655a STK33; details: at 10 µM
[17] = target: T3, Activin receptor type-1B (Homo sapiens) (UniProt P36896); experiment: Selectivity interaction (KinomeScan (DiscoverX)) EUB0000092b ACVR1B; details: at 10 µM
T3 sequence (whole entry): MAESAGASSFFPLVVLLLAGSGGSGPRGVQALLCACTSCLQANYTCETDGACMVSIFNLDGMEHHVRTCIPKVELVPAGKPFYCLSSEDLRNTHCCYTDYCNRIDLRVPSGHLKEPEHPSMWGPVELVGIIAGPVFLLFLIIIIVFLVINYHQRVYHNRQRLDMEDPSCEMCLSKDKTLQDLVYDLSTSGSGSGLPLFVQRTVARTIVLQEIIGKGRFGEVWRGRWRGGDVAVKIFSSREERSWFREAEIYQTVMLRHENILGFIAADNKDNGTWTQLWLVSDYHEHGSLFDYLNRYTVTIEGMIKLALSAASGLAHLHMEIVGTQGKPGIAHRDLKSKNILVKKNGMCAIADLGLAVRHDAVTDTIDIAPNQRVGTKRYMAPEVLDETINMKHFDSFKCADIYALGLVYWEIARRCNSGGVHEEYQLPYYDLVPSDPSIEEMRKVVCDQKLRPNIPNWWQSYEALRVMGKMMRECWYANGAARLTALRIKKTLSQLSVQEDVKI

## Nc1cnc(N2CCc3cc(S(=O)(=O)Nc4c(F)cc(Cl)cc4F)cc(N4CCCC4=O)c32)nc1 [TP-020n]
[1]
  % of control: 100%

## Cn1cc(-n2cnc3c(NCc4nc5cc(Cl)c(Cl)cc5[nH]4)nc(N4CCOCC4)nc32)cn1
[2]
  % of control: 3.54%
[3]
  % of inhibition: 8.68%

## O=C(NOC[C@H](O)CO)c1ccc(F)c(F)c1Nc1ccc(I)cc1F
[4]
  % of control: 83%

## Cc1cc([C@@H](C)Nc2ccccc2C(=O)O)c2nc(N3CCOCC3)cc(=O)n2c1 [AZD-6482]
[5]
  % of control: 90%

## COc1cc(Nc2nc(C)cc(-c3cnn4nc(OC)ccc34)n2)cc(C(F)(F)F)c1
[6]
  % of control: 94%
[7]
  % of control: 84%

## Cc1ccc(-c2ccc3c(ccc4sc5c(c43)NC[C@@H](C)NC5=O)n2)cn1
[8]
  % of inhibition: 1%

## C=CC(=O)Nc1cccc(C(=O)Nc2ccc(Nc3cc(-c4[nH]c(SC)nc4C)ccn3)cc2)c1
[9]; at 1 µM
  % of control: 88%
[9]; at 5 µM
  % of control: 91%
[10]; at 1 µM
  % of control: 96%
[10]; at 5 µM
  % of control: 113%
[11]; at 1 µM
  % of control: 90%
[11]; at 5 µM
  % of control: 67%

## N#Cc1cccc(-c2c[nH]c3ncnc(N4CCOCC4)c23)c1
[12]
  % of control: 100%

## CNC(=O)Nc1ccc(-c2nc(N3CC4CCC(C3)O4)c3cnn(C4CCC5(CC4)OCCO5)c3n2)cc1
[13]
  % of control: 99%

## CC[C@@H]1[C@H](F)C(=O)N[C@@H]1COc1nccc2cc(C(N)=O)c(OC)cc12 [ZIMLOVISERTIB]
[14]; at 0.01 µM
  % of inhibition: 6.4%
[14]; at 0.04 µM
  % of inhibition: -8.7%
[14]; at 0.2 µM
  % of inhibition: -2%
[14]; at 1 µM
  % of inhibition: -0.8%
[14]; at 5 µM
  % of inhibition: -1.4%

## CN(C)CCOc1ccc(-c2nc(-c3ccncc3)c(-c3ccc4c(c3)CC/C4=N\O)[nH]2)cc1
[15]
  % of control: 88%
[16]
  % of control: 88%

## CCC(=O)N1CCN(c2ccc(-n3c(=O)ccc4cnc5ccc(-c6cnc7ccccc7c6)cc5c43)cc2C(F)(F)F)CC1
[17]
  % of control: 45%
